Measured values: PMC7917901 (Marine Drugs, 2021)
Like-named read-outs stand apart in the source and are kept apart here.

Tests used:
C57BL/6J mice [1] = settings: mouse, in vivo
[2] = to oxalate and dichloro 1,2-diaminocyclohexyl-platinum complex; ref [48]; cited from earlier work
Source text: Although both oxaliplatin and cisplatin are platinum based antineoplastic drugs, and both act by DNA alkylation, they differ markedly in their ability to elicit pain syndromes. […] The most distinctive feature of oxaliplatin is ...

[3] = system: mechanical and cold allodynia; settings: cited from earlier work
[4] = system: nerve injury-induced hyperalgesia in mice; settings: mouse, in vivo, sc; cited from earlier work
C57BL/6J mice [5] = experiment: Induction of mechanical allodynia and general observations after intraplantar oxaliplatin or cisplatin; settings: 40 µg/paw i.pl.
[6] = human, in vivo; cited from earlier work

SMILES: O=C1[O][Pt]2([NH][C@@H]3CCCC[C@H]3[NH]2)[O]C1=O [oxaliplatin]
- Adverse signs after platinum drug injection (C57BL/6J mice [1]): maintained healthy appearance and body weight with no sign of licking, shaking, or lameness of the injected paw
- Mechanical PWT after oxaliplatin (C57BL/6J mice [1]): 1.4 ± 0.1 g
- Non-enzymatic transformation [2]: fast, non-enzymatic transformation
- Type of allodynia caused ([3]; in vivo): causes both mechanical and cold allodynia

SMILES: COC(=O)C1=C(C)NC(C)=C(C(=O)OC)C1c1ccccc1[N+](=O)[O-] [nifedipine]
- Effect on nerve injury-induced hyperalgesia [4]: ineffective

SMILES: N.N.[Cl][Pt][Cl] [cisplatin]
- Type of allodynia caused ([3]; ref [45],[46],[47]): only evokes mechanical allodynia
- Adverse signs after platinum drug injection (C57BL/6J mice [5]): No sign of adverse effects including, licking, shaking, or lameness of the injected paws was observed
- Mechanical PWT after cisplatin (C57BL/6J mice [5]; right hind paw, 24 h after injection, mean ± SEM, n = 18, naïve 3.3 ± 0.1 g, p < 0.0001): 1.9 ± 0.1 g

SMILES: CSCC[C@@H]1NC(=O)[C@H](CC(C)C)NC(=O)[C@H](CCCNC(=N)N)NC(=O)[C@H](CO)NC(=O)[C@@H]2CSSC[C@@H]3NC(=O)[C@H](CO)NC(=O)CNC(=O)[C@H]([C@@H](C)O)NC(=O)[C@H](CSSC[C@H](N)C(=O)N[C@@H](CCCCN)C(=O)NCC(=O)N[C@@H](CCCCN)C(=O)NCC(=O)N[C@@H](C)C(=O)N[C@@H](CCCCN)C(=O)N2)NC(=O)[C@H](CSSC[C@@H](C(N)=O)NC(=O)[C@H](CCCCN)NC(=O)CNC(=O)[C@H](CO)NC(=O)[C@H](CCCNC(=N)N)NC3=O)NC(=O)[C@H](CC(=O)O)NC(=O)[C@H](Cc2ccc(O)cc2)NC1=O [MVIIA]
- Dose limiting side effects [6]: dose limiting side effects including dizziness, nystagmus, sedation, blurred vision, and orthostatic hypotension
